According to PMC10914731, “Homo-BacPROTAC-induced degradation of ClpC1 as a strategy against drug-resistant mycobacteria” (Nature Communications, 2024):
≈ marks a conversion by molar mass, not a printed value. Where “and” joins values, the source holds several entries; their conditions need not be identical. Equal values may be shown once. Read-outs that look alike come from different tables or passages of the source. *1 amine or outer side, *2 acyl side, *3 side chain or, on linkers, in order; H or OH if unused. Where a SMILES comes first, the peptide text is derived from it. [ ]: non-standard residue; d: D form. X1 = C#CCn1cc(C[C@H](N[*:1])C(=O)[*:2])c2ccccc21; NMeLeu(5-OH,4R) = CN[C@@H](C[C@@H](C)CO)C(=O)O; Phe(βR-OMe) = CO[C@H](c1ccccc1)[C@H](N)C(=O)O; NMeL = CN[C@@H](CC(C)C)C(=O)O

What was measured:
Mtb (moxR) FNDR-M1 = assay: microbe, parasite or virus in culture; assay type: cell-based
Msm 700084 = assay: microbe, parasite or virus in culture; assay type: cell-based
Mtb ATCC 35825 = assay: microbe, parasite or virus in culture; assay type: cell-based
Mycobacterium fortuitum = assay: microbe, parasite or virus in culture; assay type: cell-based
Staphylococcus aureus = assay: MIC ESKAPES panel, Staphylococcus aureus; assay type: cell-based
Description: Minimum inhibitory concentration (MIC) against ESKAPES panel of Gram positive and Gram negative pathogens (Enterococcus faecium, Staphylococcus aureus, Klebsiella pneumoniae, Acinetobacter baumannii, Pseudomonas aeruginosa, Enterobacter cloacae and Salmonella typhimurium [ESKAPES panel]) were determined at the FNDR by the standard broth dilution method [CLSI, M100]. […] Mueller Hinton broth (MHB) medium was used to grow ESKAPES panel strains. The individual cultures were added as 200 μL (inoculum of 3–7 × 10^5 cfu/ml) to the respective assay plates in each well to all columns, except the media control (200 μL of medium). […] The assay plates were incubated at 37 °C, and the results were noted on the 2nd day as turbidometric readout. The clear wells indicated inhibition of growth, while the turbid wells indicated uninhibited growth.

[1] = tested on: Mtb (katG del) ATCC 35822; assay: microbe, parasite or virus in culture; assay type: cell-based; settings: Mycobacterium tuberculosis
in vivo = assay type: in vivo, BALB/cAnNCrl mice
Description: The in-life experimental procedures were conducted in strict compliance with German and European animal welfare legislation in an AAALAC-accredited facility. Male BALB/cAnNCrl mice (Charles River Laboratories Research Models and Services, 97633 Sulzfeld, Germany) were used. Animals were 9 weeks old at dosing with a body weight of 21.6–24.3 g. Animals were delivered free of pathogens according to FELASA recommendations with a health certificate provided by the breeder. Upon receipt, the state of health and sex was checked. Animals acclimatized for at least 5 days before the commencement of the in-life phase. During acclimation, animals were group-housed in individually ventilated cages, on birch wood granulate bedding with species-specific enrichment (nesting material, mouse igloo, gnawing wood). During experimental conduct, animals were housed in conventional cages with elevated grid floors. Grid floor was used to avoid contamination with test item material excreted via urine and feces and subsequent reuptake during fur grooming. No bedding and enrichment were provided except a cage divider, which can be used as a shelter. Animals always had unlimited access to food and water and received a pelleted, total pathogen-free maintenance diet and tap drinking water, sterilized by filter.
On the day before dosing, test item(s) were suspended in kleptose (20% in WFI) under continuous stirring (3.0 mg/ml). Following 2 min vortexing and 1 h stirring, the formulation was sonicated at 60 °C for 30 min and stirred at ambient temperature overnight. Before dosing, the formulation was vortexed for 2 min followed by ultraturrax treatment for 2 min.
Male BALB/cAnNCrl mice (n = 3 per test item and administration route) received a bolus dose of the formulated test item(s) (1 mg/kg iv, 30 mg/kg po) at t = 0 h, and whole blood samples were collected subsequently (35 µl at 0.1 (iv) / 0.25 (po), 0.5, 1, 2, 4, 6 h; 600 µl at sacrifice after 24 h). Animals were euthanized by exsanguination in deep isoflurane anesthesia. Whole blood samples were immediately stored on ice at about 4 °C. Plasma was separated by centrifugation at approximately 10,000 × g for 5 m at +4 °C. Centrifugation of each blood sample was started within 10 m after collection. A single aliquot of at least 15 µL of plasma was prepared and immediately stored at −20 ± 5 °C.
Sample proteins were precipitated with ACN (1 + 12, v/v) containing internal standard, and supernatants analyzed by quantitative UPLC-MS/MS: Phenomenex Luna Omega C18, 2.1 × 50 mm, 1.6 µm, 40 °C, gradient between 10% - 90% ACN with 0.1% formic acid. LogD determination: Lipophilicity of the test items, expressed as chromLogD7.5, was assessed by measuring their chromatographic retention times on C18-material. The chromatographic retention versus logD7.5 values of a series of thirteen n-alkan-2-ones (2-butanone – 2-hexadecanone) served as lipophilicity calibration.

[2] = Microsomal stability, human; assay type: in vitro ADME
How it was run: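 Compound (1 µmol/l) was incubated at 37 °C with 0.5 mg/ml liver microsomes in 100 mM Tris-HCl pH 7.5, 6.5 mM MgCl2 and 1 mM NADPH. Reactions were quenched with acetonitrile at several time points and parent remaining quantified by HPLC-MS/MS; first-order half-lives were converted to clearance as %Qh via the well-stirred model.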

Mycobacterium abscessus = assay: microbe, parasite or virus in culture; assay type: cell-based
[3] = Experiment 2, three replicate columns
[4] = oral gavage 30 mg/kg, mice, Mean, BLOQ <1.00 nmol/L
[5] = oral gavage, individual animals 1-3
[6] = oral gavage, individual animals 1-3, BLOQ <1.00 nmol/L

C#CCn1cc(C[C@@H]2NC(=O)[C@H](C(C)C)NC(=O)[C@H](CC(C)C)N(C)C(=O)[C@H](C(C)C)NC(=O)[C@H]([C@H](OC)c3ccccc3)NC(=O)[C@H](C)NC(=O)[C@H](C[C@@H](C)CO)N(C)C2=O)c2ccccc21 [Compound 5] (cyclo(A[Phe(βR-OMe)]V[NMeL]V[X1][NMeLeu(5-OH,4R)]))
MIC (Mtb (moxR) FNDR-M1; M. tuberculosis FNDR-M1, single well replicates): 0.391 µM and 0.781 µM | MIC (Mtb (moxR) FNDR-M1; Mycobacterium tuberculosis, M. tuberculosis FNDR-M1, single well replicates): 0.781 µM (≈ 0.735 µg/mL) | MIC (Mtb (moxR) FNDR-M1; Mycobacterium tuberculosis, Mtb (moxR) FNDR-M1, mean ± SD, n = 3 well replicates): 0.7 ± 0.2 µM (≈ 0.659 µg/mL) | MIC (Msm 700084; Mycolicibacterium smegmatis, 700084, single determinations, read-out: Msm 700084 MIC): 6.25 µM (≈ 5.88 µg/mL) | MIC (Msm 700084; Mycolicibacterium smegmatis, 700084, read-out: MIC Msm 700084): 6.3 µM (≈ 5.93 µg/mL) | MIC (Mtb ATCC 35825; Mycobacterium tuberculosis, ATCC35825, mean, n = 2 well replicates): 0.2 µM and 0.2 µg/mL | MIC (Mtb ATCC 35825; Mycobacterium tuberculosis, ATCC35825, single well replicates): 0.18 µg/mL and 0.19 µM | MIC (Mtb ATCC 35825; single well replicates): 0.19 µM (≈ 0.179 µg/mL) | MIC Mtb ATCC 35825 (Mtb ATCC 35825; single well replicates): 0.18 µg/mL (≈ 0.191 µM) | MIC (Mycobacterium fortuitum; Experiment 1, read-out: MIC Mycobacterium fortuitum): 6.3 µM | MIC (µg/ml) Mycobacterium fortuitum (Mycobacterium fortuitum; [3]): 5.88 µg/mL (≈ 6.25 µM) | MIC (Mycobacterium fortuitum; Experiment 2, three replicate columns, read-out: MIC (µM) Mycobacterium fortuitum): 6.25 µM | MIC (Mycobacterium fortuitum; Mycolicibacterium fortuitum, Experiment 1, read-out: MIC Mycobacterium fortuitum): 5.9 µg/mL | MIC (Mycobacterium fortuitum; Mycolicibacterium fortuitum, Experiment 2, three replicate columns, read-out: MIC (µM) Mycobacterium fortuitum): 6.25 µM | MIC (Mycobacterium fortuitum; Mycolicibacterium fortuitum, Experiment 2, three replicate columns, read-out: MIC (µg/ml) Mycobacterium fortuitum): 5.88 µg/mL | MIC (Mycobacterium fortuitum; Mycolicibacterium fortuitum, mean ± SD, read-out: MIC Mycobacterium fortuitum): 6.3 µM | MIC (Staphylococcus aureus; Gram-Positive Bacteria, replicates 1-3): >50 µM | MIC (Staphylococcus aureus; Staphylococcus aureus, Gram positive, n = 3 well replicates): > 50 µM | MIC (Staphylococcus aureus; Staphylococcus aureus, Gram-Positive Bacteria, replicates 1-3): > 47 µg/mL | MIC ([1]; ATCC35822, M. tuberculosis ATCC 35822, single well replicates): 0.781 µM (≈ 0.735 µg/mL) | MIC ([1]; ATCC35822, Mtb (katG del) ATCC 35822, mean ± SD, n = 3 well replicates): 0.8 µM (≈ 0.753 µg/mL) | half-life (in vivo; male, BALB/cAnNCrl, mouse, in vivo, po, […], oral gavage, individual animals 1-3): 36.5 min | tmax (in vivo; male, BALB/cAnNCrl, mouse, in vivo, po, […], oral gavage, individual animals 1-3, read-out: tmax): 60 min | half-life (in vivo; male, BALB/cAnNCrl, mouse, in vivo, po, […], oral gavage, mice, Mean): 34.7 min | tmax (in vivo; male, BALB/cAnNCrl, mouse, in vivo, po, […], oral gavage, mice, Mean, read-out: tmax): 100 min | Plasma concentration 24 h (in vivo; mouse, in vivo, po): BLOQ | Plasma concentration 0.5 h (in vivo; [4]): 11.7 nM | Plasma concentration 1 h (in vivo; [4]): 15.5 nM | Plasma concentration 2 h (in vivo; [4]): 18.0 nM | Plasma concentration 4 h (in vivo; [4]): 1.62 nM | Plasma concentration 6 h (in vivo; [4]): 1.76 nM | Plasma concentration 24 h (in vivo; [4]): 4.22 nM | Plasma concentration […] (in vivo; [4]): 12.2 nM | AUC0-inf/Dose (in vivo; [5]): 3.14 h*nM/nmol/kg and 1.57 h*nM/nmol/kg and 1.80 h*nM/nmol/kg | AUC0-t/Dose (in vivo; [5]): 3.02 h*nM/nmol/kg and 1.53 h*nM/nmol/kg and 1.74 h*nM/nmol/kg | Cmax/Dose (in vivo; [5]): 0.480 nM/nmol/kg and 0.558 nM/nmol/kg and 0.684 nM/nmol/kg | t1/2 (in vivo; [5]): 34.6 min and 33.1 min | tmax (in vivo; [5]): 120 min | Plasma concentration 0.5 h (in vivo; [6]): 13.0 nM and 10.7 nM and 11.4 nM | Plasma concentration 1 h (in vivo; [6]): 15.3 nM and 15.7 nM and 15.5 nM | Plasma concentration 2 h (in vivo; [6]): 14.5 nM and 17.8 nM and 21.8 nM | Plasma concentration 4 h (in vivo; [6]): 1.49 nM and 1.61 nM and 1.76 nM | Plasma concentration 6 h (in vivo; [6]): 1.54 nM and 1.59 nM and 2.14 nM | Plasma concentration 24 h (in vivo; [6]): 4.22 nM | Plasma concentration […] (in vivo; [6]): 14.2 nM and 11.7 nM and 10.6 nM | BA (in vivo; oral gavage, mice (compound 12: from Animal 2 only; compound 6: maximum potential value)): 1.2% | AUC0-inf/Dose (in vivo; oral gavage, mice, Mean): 2.17 h*nM/nmol/kg | Cmax/Dose (in vivo; oral gavage, mice, Mean): 0.574 nM/nmol/kg | AUC0-t/Dose (in vivo; oral gavage, mice, Mean (compound 6: maximum potential value with 1 nM for each time point)): 2.10 h*nM/nmol/kg | Microsomal Stability Human QH ([2]; Human): >88.400% | Microsomal Stability Human ([2]; clearance in microsomes): > 88 %Qh | MIC (µg/ml) Mycobacterium abscessus (Mycobacterium abscessus; [3]): 5.88 µg/mL (≈ 6.25 µM) | MIC (Mycobacterium abscessus; Experiment 2, three replicate columns, read-out: MIC (µM) Mycobacterium abscessus): 6.25 µM | MIC (Mycobacterium abscessus; Mycobacteroides abscessus, Experiment 1, read-out: MIC Mycobacterium abscessus): 3.1 µM and 2.9 µg/mL | MIC (Mycobacterium abscessus; Mycobacteroides abscessus, Experiment 2, three replicate columns, read-out: MIC (µM) Mycobacterium abscessus): 6.25 µM | MIC (Mycobacterium abscessus; Mycobacteroides abscessus, Experiment 2, three replicate columns, read-out: MIC (µg/ml) Mycobacterium abscessus): 5.88 µg/mL | MIC (Mycobacterium abscessus; Mycobacteroides abscessus, mean ± SD, read-out: MIC Mycobacterium abscessus): 5.5 ± 1.6 µM
